# Laboratory results taken from patent US8969554B2, “6-acyl-1,2,4-triazine-3,5-dione derivative and herbicides” (Kumiai Chemical Industry Co., Ltd., priority 2010, dated 2015).
# Key:
# Assay type in all cases: in vivo
# Parameters in all cases: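 index 0 to 10 in 10% steps of herbicidal effect with 10 meaning complete death and 0 below 10%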
# A. retroflexus [1] = assay: Herbicidal activity by field soil treatment (Test example 2); conditions: 1000 g effective component per hectare, day 21 after the treatment
# Method: (§1) [table] Test for Determining Herbicidal Activity by Field Soil Treatment A 80 cm^2 wide plastic pot was filled with a field soil and seeds of each of Echinochloa crus-galli, foxtail, Indian millet, and A. retroflexus were sowed and then covered with soil. The wettable powder produced with reference to the Formulation example 1 was diluted water, and applied on the soil surface by using a small sprayer in an amount of 1000 liters per hectare so that the effective component is 1000 g per hectare. After that, the plants were cultivated in a greenhouse, and on day 21 after the treatment, evaluation was made by the criteria described in Table 72 for determining the herbicidal effects.
# Echinochloa crus-galli [2] = assay: as above; conditions: 1000 g effective component per hectare, day 21 after the treatment
# Method: as §1
# Echinochloa crus-galli [3] = assay: Herbicidal activity by field foliage treatment (Test example 3); conditions: 1000 g effective component per hectare, day 14 after the treatment
# Method: (§2) Test example 3 Test for Determining Herbicidal Activity by Field Foliage Treatment A 80 cm^2 wide plastic pot was filled with a field soil and seeds of each of Indian millet and A. retroflexus were sowed and then incubated for 2 weeks in a green house. The wettable powder produced with reference to the Formulation example 1 was diluted water, and applied from the air to entire body of the plant as foliage treatment by using a small sprayer in an amount of 1000 liters per hectare so that the effective component is 1000 g per hectare. After that, the plants were cultivated in a greenhouse, and on day 14 after the treatment, evaluation was made by the criteria described in Table 72 for determining the herbicidal effects.
# Echinochloa oryzicola = assay: Herbicidal activity by paddy field soil treatment (Test Example 1); conditions: 1000 g of effective component per hectare, evaluated on day 21 after the treatment, criteria of Table 72
# Method: (§3) Test for Determining Herbicidal Activity by Paddy Field Soil Treatment A 100 cm^2 wide plastic pot was filled with a paddy field soil and, after watering and shuffling, seeds of each of Echinochloa oryzicola, Monochoria vaginalis, and Scirpus juncoides Rocxb. were sowed and watered to a depth of 3 cm. On the next day, the wettable powder obtained in view of Formulation example 1 was diluted with water and applied on water surface. The application amount was 1000 g of effective component per hectare. After that, the plants were cultivated in a greenhouse, and on day 21 after the treatment, evaluation was made by the criteria of Table 72 for determining the herbicidal effects. [table]
# Scirpus juncoides Rocxb. = assay: as above; conditions: applied on water surface, 1000 g of effective component per hectare, day 21 after the treatment
# Method: as §3
# Monochoria vaginalis = assay: as above; conditions: 1000 g of effective component per hectare, evaluated on day 21 after the treatment, criteria of Table 72
# Method: as §3
# A. retroflexus [4] = assay: Herbicidal activity by field foliage treatment (Test example 3); conditions: 1000 g effective component per hectare, day 14 after the treatment
# Method: as §2, with “[table]” for “Test example 3”
# Indian millet [5] = assay: as above; conditions: 1000 g effective component per hectare, day 14 after the treatment
# Method: as §2, with “[table]” for “Test example 3”
# Indian millet [6] = assay: Herbicidal activity by field soil treatment (Test example 2); conditions: 1000 g effective component per hectare, day 21 after the treatment
# Method: as §1
structure (smiles),measurement,setting,value
CCCCCCn1c(=O)c(C(=O)C2=C(O)CCCC2=O)nn(C)c1=O [I-9],"herbicidal effect index, Amaranthus retroflexus",A. retroflexus [1],10
same,"herbicidal effect index, Echinochloa crus-galli",Echinochloa crus-galli [2],7
same,"herbicidal effect index, Echinochloa crus-galli",Echinochloa crus-galli [3],10
same,"Herbicidal effects index number, Echinochloa oryzicola",Echinochloa oryzicola,8
same,"herbicidal effect index, S. juncoides Rocxb.",Scirpus juncoides Rocxb.,8
same,"Herbicidal effects index number, Monochoria vaginalis",Monochoria vaginalis,8
same,"herbicidal effect index, Amaranthus retroflexus",A. retroflexus [4],10
same,"herbicidal effect index, Abutilon theophrasti",Indian millet [5],10
Cn1nc(C(=O)C2=C(O)CCCC2=O)c(=O)n(-c2ccc(Cl)cc2)c1=O [I-53],"herbicidal effect index, Amaranthus retroflexus",A. retroflexus [1],10
same,"herbicidal effect index, Echinochloa crus-galli",Echinochloa crus-galli [2],8
same,"herbicidal effect index, Abutilon theophrasti",Indian millet [6],10
same,"herbicidal effect index, Echinochloa crus-galli",Echinochloa crus-galli [3],8
same,"Herbicidal effects index number, Echinochloa oryzicola",Echinochloa oryzicola,10
same,"herbicidal effect index, S. juncoides Rocxb.",Scirpus juncoides Rocxb.,10
same,"Herbicidal effects index number, Monochoria vaginalis",Monochoria vaginalis,7
same,"herbicidal effect index, Amaranthus retroflexus",A. retroflexus [4],10
same,"herbicidal effect index, Abutilon theophrasti",Indian millet [5],10
Cc1ccc(-n2c(=O)c(C(=O)C3=C(O)CCCC3=O)nn(C)c2=O)cc1 [I-59],"herbicidal effect index, Amaranthus retroflexus",A. retroflexus [1],10
same,"herbicidal effect index, Abutilon theophrasti",Indian millet [6],10
same,"herbicidal effect index, Echinochloa crus-galli",Echinochloa crus-galli [3],7
same,"Herbicidal effects index number, Echinochloa oryzicola",Echinochloa oryzicola,10
same,"herbicidal effect index, S. juncoides Rocxb.",Scirpus juncoides Rocxb.,10
same,"Herbicidal effects index number, Monochoria vaginalis",Monochoria vaginalis,10
same,"herbicidal effect index, Amaranthus retroflexus",A. retroflexus [4],10
same,"herbicidal effect index, Abutilon theophrasti",Indian millet [5],10
COc1cccc(-n2c(=O)c(C(=O)C3=C(O)CCCC3=O)nn(C)c2=O)c1 [I-61],"herbicidal effect index, Amaranthus retroflexus",A. retroflexus [1],10
same,"herbicidal effect index, Echinochloa crus-galli",Echinochloa crus-galli [2],8
same,"herbicidal effect index, Abutilon theophrasti",Indian millet [6],10
same,"herbicidal effect index, Echinochloa crus-galli",Echinochloa crus-galli [3],9
same,"Herbicidal effects index number, Echinochloa oryzicola",Echinochloa oryzicola,8
same,"herbicidal effect index, S. juncoides Rocxb.",Scirpus juncoides Rocxb.,10
same,"Herbicidal effects index number, Monochoria vaginalis",Monochoria vaginalis,10
same,"herbicidal effect index, Amaranthus retroflexus",A. retroflexus [4],10
same,"herbicidal effect index, Abutilon theophrasti",Indian millet [5],10
Cn1nc(C(=O)C2=C(O)CCCC2=O)c(=O)n(-c2cccc(C(F)(F)F)c2)c1=O [I-64],"herbicidal effect index, Amaranthus retroflexus",A. retroflexus [1],10
same,"herbicidal effect index, Echinochloa crus-galli",Echinochloa crus-galli [2],10
same,"herbicidal effect index, Abutilon theophrasti",Indian millet [6],10
same,"herbicidal effect index, Echinochloa crus-galli",Echinochloa crus-galli [3],10
same,"Herbicidal effects index number, Echinochloa oryzicola",Echinochloa oryzicola,10
same,"herbicidal effect index, S. juncoides Rocxb.",Scirpus juncoides Rocxb.,10
same,"Herbicidal effects index number, Monochoria vaginalis",Monochoria vaginalis,10
same,"herbicidal effect index, Amaranthus retroflexus",A. retroflexus [4],10
same,"herbicidal effect index, Abutilon theophrasti",Indian millet [5],10
Cn1nc(C(=O)C2=C(O)CCCC2=O)c(=O)n(-c2ccc(C(F)(F)F)cc2)c1=O [I-65],"herbicidal effect index, Amaranthus retroflexus",A. retroflexus [1],10
same,"herbicidal effect index, Echinochloa crus-galli",Echinochloa crus-galli [2],10
same,"herbicidal effect index, Abutilon theophrasti",Indian millet [6],10
same,"herbicidal effect index, Echinochloa crus-galli",Echinochloa crus-galli [3],8
same,"Herbicidal effects index number, Echinochloa oryzicola",Echinochloa oryzicola,10
same,"herbicidal effect index, S. juncoides Rocxb.",Scirpus juncoides Rocxb.,10
same,"Herbicidal effects index number, Monochoria vaginalis",Monochoria vaginalis,10
same,"herbicidal effect index, Amaranthus retroflexus",A. retroflexus [4],10
same,"herbicidal effect index, Abutilon theophrasti",Indian millet [5],10
COc1ccc(-n2c(=O)c(C(=O)C3=C(O)CCCC3=O)nn(C)c2=O)c(OC)c1 [I-96],"herbicidal effect index, Amaranthus retroflexus",A. retroflexus [1],10
same,"herbicidal effect index, Abutilon theophrasti",Indian millet [6],10
same,"herbicidal effect index, Echinochloa crus-galli",Echinochloa crus-galli [3],7
same,"Herbicidal effects index number, Echinochloa oryzicola",Echinochloa oryzicola,8
same,"herbicidal effect index, S. juncoides Rocxb.",Scirpus juncoides Rocxb.,10
same,"Herbicidal effects index number, Monochoria vaginalis",Monochoria vaginalis,10
same,"herbicidal effect index, Amaranthus retroflexus",A. retroflexus [4],10
same,"herbicidal effect index, Abutilon theophrasti",Indian millet [5],9
Cc1ccc(-n2c(=O)c(C(=O)C3=C(O)CCCC3=O)nn(C)c2=O)c(F)c1 [I-108],"herbicidal effect index, Amaranthus retroflexus",A. retroflexus [1],10
same,"herbicidal effect index, Abutilon theophrasti",Indian millet [6],8
same,"Herbicidal effects index number, Echinochloa oryzicola",Echinochloa oryzicola,10
same,"herbicidal effect index, S. juncoides Rocxb.",Scirpus juncoides Rocxb.,10
same,"Herbicidal effects index number, Monochoria vaginalis",Monochoria vaginalis,10
same,"herbicidal effect index, Amaranthus retroflexus",A. retroflexus [4],10
same,"herbicidal effect index, Abutilon theophrasti",Indian millet [5],9
Cn1nc(C(=O)C2=C(O)CCCC2=O)c(=O)n(-c2ccc3c(c2)OCO3)c1=O [I-170],"herbicidal effect index, Amaranthus retroflexus",A. retroflexus [1],10
same,"herbicidal effect index, Abutilon theophrasti",Indian millet [6],10
same,"herbicidal effect index, Echinochloa crus-galli",Echinochloa crus-galli [3],10
same,"Herbicidal effects index number, Echinochloa oryzicola",Echinochloa oryzicola,10
same,"herbicidal effect index, S. juncoides Rocxb.",Scirpus juncoides Rocxb.,10
same,"Herbicidal effects index number, Monochoria vaginalis",Monochoria vaginalis,10
same,"herbicidal effect index, Amaranthus retroflexus",A. retroflexus [4],10
same,"herbicidal effect index, Abutilon theophrasti",Indian millet [5],10
Cc1ccc(-n2c(=O)c(C(=O)C3=C(O)CCCC3=O)nn(C)c2=O)nc1 [I-182],"herbicidal effect index, Amaranthus retroflexus",A. retroflexus [1],10
same,"herbicidal effect index, Echinochloa crus-galli",Echinochloa crus-galli [2],7
same,"herbicidal effect index, Abutilon theophrasti",Indian millet [6],10
same,"herbicidal effect index, Echinochloa crus-galli",Echinochloa crus-galli [3],8
same,"herbicidal effect index, S. juncoides Rocxb.",Scirpus juncoides Rocxb.,9
same,"Herbicidal effects index number, Monochoria vaginalis",Monochoria vaginalis,8
same,"herbicidal effect index, Amaranthus retroflexus",A. retroflexus [4],9
same,"herbicidal effect index, Abutilon theophrasti",Indian millet [5],9
Cn1nc(C(=O)C2=C(O)CCCC2=O)c(=O)n(N2CCSCC2)c1=O [I-203],"herbicidal effect index, Amaranthus retroflexus",A. retroflexus [1],7
same,"herbicidal effect index, Echinochloa crus-galli",Echinochloa crus-galli [2],9
same,"herbicidal effect index, Echinochloa crus-galli",Echinochloa crus-galli [3],6
same,"Herbicidal effects index number, Echinochloa oryzicola",Echinochloa oryzicola,10
same,"herbicidal effect index, S. juncoides Rocxb.",Scirpus juncoides Rocxb.,10
same,"Herbicidal effects index number, Monochoria vaginalis",Monochoria vaginalis,10
same,"herbicidal effect index, Amaranthus retroflexus",A. retroflexus [4],10
same,"herbicidal effect index, Abutilon theophrasti",Indian millet [5],9
CCOc1ccc(-n2c(=O)c(C(=O)C3=C(O)CCCC3=O)nn(C)c2=O)cc1 [I-268],"herbicidal effect index, Amaranthus retroflexus",A. retroflexus [1],10
same,"herbicidal effect index, Abutilon theophrasti",Indian millet [6],8
same,"herbicidal effect index, Echinochloa crus-galli",Echinochloa crus-galli [3],7
same,"Herbicidal effects index number, Echinochloa oryzicola",Echinochloa oryzicola,10
same,"herbicidal effect index, S. juncoides Rocxb.",Scirpus juncoides Rocxb.,10
same,"Herbicidal effects index number, Monochoria vaginalis",Monochoria vaginalis,10
same,"herbicidal effect index, Amaranthus retroflexus",A. retroflexus [4],10
same,"herbicidal effect index, Abutilon theophrasti",Indian millet [5],9
Cc1cnc(-n2c(=O)c(C(=O)C3=C(O)CCCC3=O)nn(C)c2=O)cn1 [I-292],"herbicidal effect index, Echinochloa crus-galli",Echinochloa crus-galli [2],7
same,"herbicidal effect index, Abutilon theophrasti",Indian millet [6],9
same,"herbicidal effect index, Echinochloa crus-galli",Echinochloa crus-galli [3],8
same,"Herbicidal effects index number, Echinochloa oryzicola",Echinochloa oryzicola,10
same,"herbicidal effect index, S. juncoides Rocxb.",Scirpus juncoides Rocxb.,10
same,"Herbicidal effects index number, Monochoria vaginalis",Monochoria vaginalis,10
same,"herbicidal effect index, Amaranthus retroflexus",A. retroflexus [4],10
same,"herbicidal effect index, Abutilon theophrasti",Indian millet [5],10
CSc1c(Cl)cc(-n2c(=O)c(C(=O)C3=C(O)CCCC3=O)nn(C)c2=O)cc1Cl [I-300],"herbicidal effect index, Amaranthus retroflexus",A. retroflexus [1],10
same,"herbicidal effect index, Abutilon theophrasti",Indian millet [6],10
same,"herbicidal effect index, Echinochloa crus-galli",Echinochloa crus-galli [3],9
same,"Herbicidal effects index number, Echinochloa oryzicola",Echinochloa oryzicola,10
same,"herbicidal effect index, S. juncoides Rocxb.",Scirpus juncoides Rocxb.,10
same,"Herbicidal effects index number, Monochoria vaginalis",Monochoria vaginalis,10
same,"herbicidal effect index, Amaranthus retroflexus",A. retroflexus [4],10
same,"herbicidal effect index, Abutilon theophrasti",Indian millet [5],8
CC(C)Cn1c(=O)c(C(=O)C2=C(O)CCCC2=O)nn(-c2ccccn2)c1=O [I-307],"herbicidal effect index, Amaranthus retroflexus",A. retroflexus [1],10
same,"herbicidal effect index, Echinochloa crus-galli",Echinochloa crus-galli [2],7
same,"herbicidal effect index, Abutilon theophrasti",Indian millet [6],9
same,"Herbicidal effects index number, Echinochloa oryzicola",Echinochloa oryzicola,8
same,"herbicidal effect index, S. juncoides Rocxb.",Scirpus juncoides Rocxb.,8
same,"Herbicidal effects index number, Monochoria vaginalis",Monochoria vaginalis,9
same,"herbicidal effect index, Amaranthus retroflexus",A. retroflexus [4],9
same,"herbicidal effect index, Abutilon theophrasti",Indian millet [5],10
Cn1nc(C(=O)C2=C(O)CCCC2=O)c(=O)n(-c2ccc(F)cc2)c1=S [I-480],"herbicidal effect index, Amaranthus retroflexus",A. retroflexus [1],10
same,"herbicidal effect index, Echinochloa crus-galli",Echinochloa crus-galli [2],8
same,"herbicidal effect index, Abutilon theophrasti",Indian millet [6],10
same,"herbicidal effect index, Echinochloa crus-galli",Echinochloa crus-galli [3],9
same,"Herbicidal effects index number, Echinochloa oryzicola",Echinochloa oryzicola,10
same,"herbicidal effect index, S. juncoides Rocxb.",Scirpus juncoides Rocxb.,10
same,"herbicidal effect index, Amaranthus retroflexus",A. retroflexus [4],10
same,"herbicidal effect index, Abutilon theophrasti",Indian millet [5],10
Cc1ccc(-n2c(=O)c(C(=O)O)nn(C)c2=O)nc1 [V-361],"herbicidal effect index, Amaranthus retroflexus",A. retroflexus [1],8
same,"herbicidal effect index, Abutilon theophrasti",Indian millet [6],10
same,"herbicidal effect index, S. juncoides Rocxb.",Scirpus juncoides Rocxb.,10
same,"Herbicidal effects index number, Monochoria vaginalis",Monochoria vaginalis,10
same,"herbicidal effect index, Amaranthus retroflexus",A. retroflexus [4],10
same,"herbicidal effect index, Abutilon theophrasti",Indian millet [5],9
